# “And” between values parts separate entries of the source, which are not always exact repeats. Equal entries are not always repeated. Where two headings read alike, the source gives them in different places.
# Columns and labels:
# [1] = system: T. cruzi (Ca-I/72) in C2C12 murine cardiomyoblasts; experiment: T. cruzi-infected murine cardiomyoblasts (C2C12); format: cell-based, Trypanosoma cruzi; conditions: C2C12 murine cardiomyoblasts, read-out: EC50 T. cruzi-infected cardiomyoblasts
# How it was run: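 Infected-host-cell imaging assay: inhibitor, 3-fold dilutions topping at 10 μM, was added to C2C12 murine cardiomyoblasts infected with 10^3 or 10^4 Ca-I/72 parasites for 2 days at 37° C. DAPI-stained fixed wells were imaged to count parasites and host cells separately, yielding antiparasitic EC50 and cytotoxic CC50.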
# [2] = system: T. b. brucei procyclic forms; experiment: Growth of axenic cultures of T. b. brucei procyclic forms (PCFs); format: cell-based, Trypanosoma brucei brucei; conditions: axenic culture; read-out: EC50 T. b. brucei PCF
# [3] = system: human dermal fibroblasts; experiment: Human cell toxicity, resazurin viability; format: cell-based
# How it was run: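 Primary human dermal fibroblasts, 2400 cells/well, exposed in duplicate to inhibitors at final 0.001-0.1 mM in 1% DMSO (1% DMSO control) for 48 h at 37 °C. Resazurin then added and viability read by fluorescence (544/590 nm) after further 24 h.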
# [4] = system: C2C12 mouse cardiomyoblast cell line; experiment: Host cell cytotoxicity in the T. cruzi infection model; format: cell-based; conditions: host cardiomyoblasts; read-out: C2C12 Cytotoxicity CC50
# How it was run: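 C2C12 murine cardiomyoblasts infected with T. cruzi were incubated with compound 48 h at 37 °C, fixed in 2% PFA and stained with 5 μg/ml DAPI. Automated microscopy imaging quantified host cells and parasites separately; host cytotoxicity derived as CC50.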
# [5] = Thiolation of inhibitors with glutathione, LCMS; format: physicochemical; conditions: 1 mM glutathione, 0.5 mM compound, Tris pH 8.0, 10% DMSO, room temperature
# Description: Samples were analyzed by HPLC-MS (as described above) by injecting 0.01 mL aliquots onto a Luna […] C18(2) 100 Å, 4.6 mm, 50 mm column (Phenomenex) using the HPLC method described in the chemistry section at 0-6 h time points. […] Integration of the chromatographic peaks of the inhibitors and their GSH adducts at each time point was used to determine the rate of GSH adduct formation.
# [6] = biological target: human cathepsin S (Homo sapiens (Human), UniProt P25774); conditions: Ref. 32; read-out: apparent IC50 Human Cathepsin S; cited from earlier work
# human cathepsin S, sequence (P25774 115-331): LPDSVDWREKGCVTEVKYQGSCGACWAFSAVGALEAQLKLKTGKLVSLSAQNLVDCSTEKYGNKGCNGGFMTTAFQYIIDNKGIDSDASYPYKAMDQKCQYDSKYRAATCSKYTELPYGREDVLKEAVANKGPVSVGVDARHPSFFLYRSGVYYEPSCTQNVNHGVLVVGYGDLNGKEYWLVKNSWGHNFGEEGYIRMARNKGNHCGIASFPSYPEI
# [7] = system: T. cruzi epimastigotes (strain Y); conditions: Ndao et al. (2014), read-out: trypanocidal activity EC50; cited from earlier work
# [8] = system: T. cruzi epimastigotes (strain Y); experiment: Growth of axenic cultures of T. cruzi epimastigotes; conditions: epimastigotes
# Description: Selected cruzain inhibitors in axenic cell cultures of Trypanosoma brucei brucei (procyclic trypomastigotes; ATCC PRA-381) and Trypanosoma cruzi (epimastigote forms; strain Y, ATCC 50832GFP) were tested. T. b. brucei is grown in SDM-79 medium, and T. cruzi is grown in ATCC medium (1029 LIT medium). Both media included fetal calf serum (10%) and penicillin/streptomycin (50 U/mL). […] T. brucei and T. cruzi (5 mL in flask cultures) at 26° C. were seeded at ˜3×10^6 cells, and diluted daily maintaining a mid-log growth phase for up to 100 hrs. Cell counts were scored using a Z2 Coulter Counter. After each cell dilution, fresh compound or an equal volume of DMSO (control samples), was supplemented into the cultures. […] Cruzain inhibitors where the highest concentration reflects the upper limit of solubilities of the inhibitors in 1% (v/v) DMSO solutions were evaluated. These inhibitors are likely to bind to proteins in fetal calf serum, and for these reasons, fresh inhibitors were added each time cells were re-fed.
# Selected cruzain inhibitors were evaluated in axenic cell cultures of T. b. brucei and T. cruzi. Procyclic trypomastigotes of T. b. brucei (ATCC PRA-381) were grown in the SDM-79 medium at 26° C., and bloodstream forms (ATCC PRA-383) were grown at 37° C. in the HMI-9 medium at 5% C02. T. cruzi (epimastigote forms, strain Y, ATCC 50832GFP) was grown in the ATCC medium (1029 LIT medium). Both forms of T. b. brucei and T. cruzi were grown in media containing 10% fetal bovine serum (FBS) and penicillin/streptomycin (50 U mL^−1). […] Control samples contained equal amounts of DMSO. T. b. brucei and T. cruzi (5 mL in flask cultures) were seeded at ˜3×10^6 cells and diluted daily, maintaining a mid-log growth phase for up to 120 h. […] After each cell dilution, fresh compound or an equal volume of DMSO (control samples) was supplemented into the cultures, while maintaining a constant concentration of each inhibitor. Cell counts were scored using a Z2 Coulter Counter.
# [9] = system: T. b. brucei bloodstream forms; experiment: Growth of axenic cultures of T. b. brucei bloodstream forms (BSFs); conditions: read-out: EC50 T. b. brucei BSF; axenic culture
# Description: Selected cruzain inhibitors were evaluated in axenic cell cultures of T. b. brucei and T. cruzi. Procyclic trypomastigotes of T. b. brucei (ATCC PRA-381) were grown in the SDM-79 medium at 26° C., and bloodstream forms (ATCC PRA-383) were grown at 37° C. in the HMI-9 medium at 5% C02. […] Both forms of T. b. brucei and T. cruzi were grown in media containing 10% fetal bovine serum (FBS) and penicillin/streptomycin (50 U mL^−1). […] Control samples contained equal amounts of DMSO. T. b. brucei and T. cruzi (5 mL in flask cultures) were seeded at ˜3×10^6 cells and diluted daily, maintaining a mid-log growth phase for up to 120 h. […] After each cell dilution, fresh compound or an equal volume of DMSO (control samples) was supplemented into the cultures, while maintaining a constant concentration of each inhibitor. Cell counts were scored using a Z2 Coulter Counter.
# In vitro Cell Assays. Bloodstream form T. b. brucei strain SM427 was grown in HM1-9 medium that included fetal bovine serum (10%) and antibiotics (100 U/mL penicillin-streptomycin, Gibco™). Inhibitors dissolved in 100% (v/v) DMSO stock solutions were added at final concentrations of 0.5-20 μM (final concentrations of DMSO were <1% (v/v)). T. b. brucei were seeded at ˜1×10^6 cells at 37° C., and diluted daily to maintain a log phase of growth for up to 96 h. […] After each dilution, the cell cultures were supplemented with inhibitor or DMSO (control) to keep concentrations constant. Cell density was determined and graphed as previously reported.^36 Trypanosomes were quantified using a Z2 Coulter Counter, and values of EC50 were determined after 3-4 days of treatment by the interpolation method of Huber and Koella.^37
structure (smiles),measurement,setting,value
"CN1CCN(C(=O)N[C@@H](Cc2ccccc2)C(=O)N[C@H](/C=C/S(=O)(=O)c2ccccc2)CCc2ccccc2)CC1 [Compound K11777, reference compound]",EC50,[1]; listed as K777,38 ± 9 nM
same,EC50,[1],700 nM
same,EC50,[2],2000 nM and 2300 nM and 1700 nM
same,EC50,[3],70000 nM
same,"toxicity in human dermal fibroblasts, concentration",[3]; concentration at which toxicity was or was not seen,70 µM
same,CC50,"[3]; human dermal fibroblasts, read-out: Human Cell Cytotoxicity CC50",60000 to 100000 nM
same,CC50,[4],> 10000 nM
same,"Rate of Thiolation, k",[5],0.00467 ± 0.0067 M⁻¹ s⁻¹
same,IC50,[6],0.6 nM
same,EC50,[7],10000 to 100000 nM
same,T. cruzi axenic culture EC50,[8],poorly effective
same,EC50,[8]; read-out: T. cruzi axenic culture EC50,~60000 nM
same,EC50,[9],90 ± 60 nM

# Source: US20240150396A1 (The Texas A&M University System, priority 2021, published 2024)
